Measured values from patent publication US20120053148A1, “INHIBITORS OF HEPATITIS C VIRUS” (GILEAD SCIENCES, INC., priority 2010, published 2012).
Where two headings read alike, the source gives them in different places.

Experiments:
HCV Replicon IA = assay: HCV replicon assay in Huh-7 cells, genotype 1a; format: cell-based; settings: Hepatitis C virus, 72 h, Huh-7 HCV replicon cells, 3 days
HCV Replicon IB = assay: HCV replicon assay in Huh-7 cells, genotype 1b (Rluc luciferase readout); format: cell-based, hepatitis C virus; settings: for inhibition at 10 µM: 72 h; for EC50: read-out: EC50_HCV1B_
[1] = Hepatitis C virus, 10 μM, Huh-7 HCV replicon cells, 3 days, read-out: % inhibition @ 10 μM HCV Replicon IB
[2] = Hepatitis C virus, 10 uM, 1b-Rluc replicon, Huh-7 cells, 3 days, read-out: Inhibition @ 10 uM in 1b-Rluc
[3] = Hepatitis C virus, Huh-7, 72 h, HCV1B replicon, Huh-7 cells, 3 days
[4] = HCV1B replicon, Huh-7 cells, 3 days

SMILES | inhibition at 10 µM (HCV Replicon IB; [2]) [%] | EC50 (HCV Replicon IB; [3]) [nM] | further results
O=C(NCc1ccccc1)c1cc(O)c2cc(-c3cn[nH]c3)cc(C(F)(F)F)c2n1 [Compound 5] |  |  | inhibition at 10 µM (HCV Replicon IA): 99.2%; inhibition at 10 µM (HCV Replicon IB; [1]): 99.2%
O=C(NCc1cccs1)c1cc(Cl)c2cc(-c3ccoc3)cc(C(F)(F)F)c2n1 [Compound 25] |  |  | inhibition at 10 µM (HCV Replicon IA): 98.7%; inhibition at 10 µM (HCV Replicon IB; [1]): 99.7%
O=C(NCc1cocn1)c1cc(O)c2cc(-c3cn[nH]c3)cc(C(F)(F)F)c2n1 [Compound 10] |  |  | inhibition at 10 µM (HCV Replicon IA): 80.7%; inhibition at 10 µM (HCV Replicon IB; [1]): 74.3%
O=C(NCc1cccnc1)c1cc(O)c2cc(-c3cn[nH]c3)cc(C(F)(F)F)c2n1 [Compound 11] |  |  | inhibition at 10 µM (HCV Replicon IA): 63.2%; inhibition at 10 µM (HCV Replicon IB; [1]): 66.1%
Cc1cc(C(=O)NCc2cccs2)nc2c(C(F)(F)F)cc(-c3ccoc3)cc12 [Compound 28] |  |  | inhibition at 10 µM (HCV Replicon IA): 99.8%; inhibition at 10 µM (HCV Replicon IB; [1]): 100%
O=C(NCCc1ccccc1)c1cc(O)c2cc(-c3cn[nH]c3)cc(C(F)(F)F)c2n1 [Compound 16] |  |  | inhibition at 10 µM (HCV Replicon IA): 93%; inhibition at 10 µM (HCV Replicon IB; [1]): 96.7%
O=C(NCc1cccs1)c1cc(O)c2cc(-c3ccccc3)c(F)c(C(F)(F)F)c2n1 [Compound 59] |  |  | inhibition at 10 µM (HCV Replicon IA): 92.7%; inhibition at 10 µM (HCV Replicon IB; [1]): 97.2%
O=C(NCc1ccncc1)c1cc(O)c2cc(-c3cn[nH]c3)cc(C(F)(F)F)c2n1 [Compound 13] |  |  | inhibition at 10 µM (HCV Replicon IA): 43.4%; inhibition at 10 µM (HCV Replicon IB; [1]): 20.7%
O=C(NCc1nccs1)c1cc(O)c2cc(-c3cn[nH]c3)cc(C(F)(F)F)c2n1 [Compound 9] |  |  | inhibition at 10 µM (HCV Replicon IA): 98.1%; inhibition at 10 µM (HCV Replicon IB; [1]): 98.5%
O=C(NCc1ccccn1)c1cc(Cl)c2cc(-c3ccccc3)cc(C(F)(F)F)c2n1 [Compound 67] |  |  | inhibition at 10 µM (HCV Replicon IA): 96.9%; inhibition at 10 µM (HCV Replicon IB; [1]): 97.8%
O=C(NCc1cccs1)c1nc(O)c2cc(-c3cn[nH]c3)cc(C(F)(F)F)c2n1 [Compound 49] |  |  | inhibition at 10 µM (HCV Replicon IA): 99.7%; inhibition at 10 µM (HCV Replicon IB; [1]): 99%
CNc1nc(C(=O)NCc2cccs2)nc2c(C(F)(F)F)cc(-c3ccccc3)cc12 [Compound 52] |  |  | inhibition at 10 µM (HCV Replicon IA): 99.6%; inhibition at 10 µM (HCV Replicon IB; [1]): 100%
O=C(c1cc(O)c2cc(-c3ccoc3)cc(C(F)(F)F)c2n1)N1CCC(c2ccc(F)cc2)CC1 [Compound 30] |  |  | inhibition at 10 µM (HCV Replicon IA): 95.3%; inhibition at 10 µM (HCV Replicon IB; [1]): 74.9%
Cc1cc(C(=O)NC2CNC(C)(C)COC2)nc2c(C(F)(F)F)cc(C3CC3)cc12 (stereo not drawn) [Compound 134] | 93.1 |  | 
Cc1cc(-c2nnc(NC(C)(C)CO)o2)nc2c(C(F)(F)F)cc(C3CC3)cc12 [Compound 261] | 99.2 |  | 
Cc1cc(-c2nnc(NCCC3OCCO3)s2)nc2c(C(F)(F)F)cc(C3CC3)cc12 [Compound 294] | 99.9 |  | 
Cc1cc(-c2nnc(N[C@H]3C[C@@H](O)C3)o2)nc2c(C(C)(C)C)cc(OCC(C)C)cc12 [Compound 534] |  |  | EC50 (HCV Replicon IB; Hepatitis C virus, Huh-7, 72 h): 154 nM
Cc1cc(-c2nnc(NCc3ccccn3)o2)nc2c(C(F)(F)F)cc(C3CC3)cc12 [Compound 254] | 99.7 |  | 
Cc1ccc(CNC(=O)c2cc(C)c3cc(C4CC4)cc(C(F)(F)F)c3n2)nc1 [Compound 85] | 100 |  | 
Cc1cc(-c2nnc(N[C@H]3C[S@+]([O-])C3)o2)nc2c(C(C)(C)C)cc(OCC(F)(F)F)cc12 [Compound 508] |  | 24.3 | 
Cc1cc(-c2nnc(NCCCCCO)o2)nc2c(C(F)(F)F)cc(C3CC3)cc12 [Compound 259] | 98.4 |  | 
Cc1cc(-c2nnc(NCC3COCCN3)s2)nc2c(C(F)(F)F)cc(C3CC3)cc12 (stereo not drawn) [Compound 299] | 98 |  | 
CO[C@@H]1CN[C@H](CNC(=O)c2cc(N)c3cc(C4CC4)cc(C(C)(C)C)c3n2)C1 [Compound 328] |  | 15.9 | 

SMILES | inhibition at 10 µM (HCV Replicon IB; [2]) [%] | EC50 (HCV Replicon IB; [3]) [nM] | further results
Cc1cc(-c2nnc(N[C@H]3CC[C@@](O)(CF)C3)o2)nc2c(C(C)(C)C)cc(OCC(F)(F)F)cc12 [Compound 492] |  | 19.3 | 
Cc1cc(-c2nnc(NCC3S(=O)(=O)CCS3(=O)=O)o2)nc2c(C(C)(C)C)cc(OCC(F)(F)F)cc12 [Compound 484] |  | 2190 | 
Cc1cc(C(=O)NCc2ccccn2)nc2c(C(F)(F)F)cc(C3CC3(C)C)cc12 (stereo not drawn) [Compound 142] | 99.4 |  | 
CC(C)(C)c1cc(C2CC2)cc2c(N)cc(-c3nnc(NCCCCO)o3)nc12 [Compound 355] |  | 3.24 | 
Cc1cc(-c2nnc(NCCCO)s2)nc2c(C(F)(F)F)cc(C3CC3)cc12 [Compound 286] | 99.9 |  | 
CCCO[C@H]1CN[C@H](CNC(=O)c2cc(N)c3cc(C4CC4)cc(C(C)(C)C)c3n2)C1 [Compound 331] |  | 243 | 
CC(C)(C)c1cc(C2CC2)cc2c(Cl)cc(C(=O)NCc3ccccn3)nc12 [Compound 229] | 100 |  | 
Cc1cc(-c2nnc(N[C@H]3C[C@@](O)(CO)C3)o2)nc2c(C(C)(C)C)cc(OCC(F)(F)F)cc12 [Compound 500] |  | 7.57 | 
Cc1cc(C(=O)NCC(C)(C)C#N)nc2c(C(F)(F)F)cc(-c3ccccc3)cc12 [Compound 162] | 80.5 |  | 
CO[C@@H]1CN[C@@H](CNC(=O)c2cc(N)c3cc(C4CC4)cc(C(C)(C)C)c3n2)C1 [Compound 329] |  | 9.8 | 
O=C(NCC1(O)CC1)c1cc(Cl)c2cc(C3CC3)cc(C(F)(F)F)c2n1 [Compound 211] | 94.8 |  | 
CCCC(=O)Nc1nnc(-c2cc(C)c3cc(C4CC4)cc(C(F)(F)F)c3n2)o1 [Compound 262] | 99.7 |  | 
COC[C@]1(O)C[C@H](Nc2nnc(-c3cc(C)c4cc(OCC(F)(F)F)cc(C(C)(C)C)c4n3)o2)C1 [Compound 504] |  |  | EC50 (HCV Replicon IB; [4]): 9.86 nM
COc1cc(C(F)(F)F)c2nc(-c3nnc(NCC4OCCO4)o3)cc(C)c2c1 [Compound 278] | 99.9 |  | 
CCCCNc1nnc(-c2cc(C)c3cc(C4CC4)cc(C(F)(F)F)c3n2)o1 [Compound 244] | 100 |  | 
Nc1cc(C(=O)NC[C@H]2CC(F)(F)CCN2)nc2c(C(F)(F)F)cc(OC(F)F)cc12 [Compound 315] |  | 83.9 | 
Cc1cc(-c2nnc(NCC[C@H](C)O)s2)nc2c(C(C)(C)C)cc(C3CC3)cc12 [Compound 385] |  |  | EC50 (HCV Replicon IB; [4]): 1.73 nM
Cc1cc(-c2nnc(NS(C)(=O)=O)s2)nc2c(C(F)(F)F)cc(C3CC3)cc12 [Compound 289] | 70.7 |  | 
Cc1cc(C(=O)NCc2ccccn2)nc2c(C(F)(F)F)cc(OC3CCCC3)cc12 [Compound 184] | 96 |  | 
CC(C)(C)c1cc(C2CC2)cc2c(N)cc(-c3nnc(NCc4ccccn4)o3)nc12 [Compound 347] |  | 7.54 | 
Cc1cc(C(=O)NCc2ccccn2)nc2c(C(F)(F)F)cc(OC(F)F)cc12 [Compound 187] | 99.9 |  | 
Cc1cc(C(=O)NCc2cc(CN3CCOCC3)ccn2)nc2c(C(F)(F)F)cc(C3CC3)cc12 [Compound 130] | 84.7 |  | 
Cc1cc(C(=O)NCCCO)nc2c(C(F)(F)F)cc(-c3ccccc3)cc12 [Compound 164] | 94.6 |  | 

SMILES | inhibition at 10 µM (HCV Replicon IB; [2]) [%] | EC50 (HCV Replicon IB; [3]) [nM] | further results
CC[C@]1(O)C[C@@H](Nc2nnc(-c3cc(C)c4cc(OCC(F)(F)F)cc(C(C)(C)C)c4n3)o2)C1 [Compound 478] |  | 1.48 | 
Cc1cc(C(=O)NCC2(O)CC2)nc2c(C(F)(F)F)cc(C3CC3)cc12 [Compound 97] | 98.8 |  | 
Cc1cc(-c2nnc(N[C@H]3C[C@](O)(CF)C3)o2)nc2c(C(C)(C)C)cc(OCC(F)(F)F)cc12 [Compound 467] |  | 0.63 | 
Cc1cc(-c2nnc(N[C@H]3C[C@](O)(CF)C3)o2)nc2c(C(C)(C)C)cc(OCC(F)F)cc12 [Compound 528] |  | 0.41 | 
Cc1cc(C(=O)NCC2CCCC(=O)N2)nc2c(C(F)(F)F)cc(C3CC3)cc12 (stereo not drawn) [Compound 91] | 92.7 |  | 
Cc1cc(-c2nnc(N[C@H]3C[C@@H](O)C3)o2)nc2c(C(C)(C)C)cc(OCC(F)(F)F)cc12 [Compound 462] |  | 1.54 | 
Cc1nnc(-c2cc(OC(F)(F)F)cc3c(Cl)cc(C(=O)NCc4ccccn4)nc23)o1 [Compound 338] |  | 4710 | 
Cc1cc(-c2nnc(NCCC(C)(C)O)o2)nc2c(C(C)(C)C)cc(C3CC3)cc12 [Compound 409] |  | 9.43 | 
Cc1cc(-c2nnc(NC[C@@H](O)CO)s2)nc2c(C(F)(F)F)cc(C3CC3)cc12 [Compound 303] | 98.2 |  | 
O=C(NCc1ccccn1)c1cc(Cl)c2cc(C3CC3)cc(C(F)(F)F)c2n1 [Compound 210] | 99.9 |  | 
Cc1nnc(-c2cc(OC(F)(F)F)cc3c(N)cc(C(=O)NCc4ccccn4)nc23)[nH]1 [Compound 339] |  | 1230 | 
Cc1cc(C(=O)NCc2cnccn2)nc2c(C(F)(F)F)cc(C3CC3)cc12 [Compound 89] | 100 |  | 
Cc1cc(C(=O)NC[C@@H]2CC3(CN2)OCCO3)nc2c(C(C)(C)C)cc(OCC(F)(F)F)cc12 [Compound 510] |  | 9.8 | 
Cc1cc(C(=O)NC[C@H]2CC(F)(F)CN2)nc2c(C(F)(F)F)cc(C3CC3)cc12 [Compound 128] | 99.4 |  | 
CC(C)(C)c1cc(OCC(F)(F)F)cc2c(Cl)cc(-c3nnc(NCC4OCCO4)o3)nc12 [Compound 522] |  | 5.85 | 
Cc1cc(-c2nnc(NCC3OCCO3)o2)nc2c(C(C)(C)O)cc(C3CC3)cc12 [Compound 542] |  | 43.8 | 
Cc1cc(-c2nnc(NCCCS(N)(=O)=O)o2)nc2c(C(C)(C)C)cc(C3CC3)cc12 [Compound 393] |  | 1200 | 
O=C(NCc1ccccn1)c1cc(Cl)c2cc(OC(F)(F)F)cc(/C=C/c3ccccc3)c2n1 [Compound 240] | 42.2 |  | 
Cc1cc(-c2nnc(NCC(F)(F)CO)o2)nc2c(C(C)(C)C)cc(OCC(F)(F)F)cc12 [Compound 459] |  | 4.32 | 
Cc1cc(C(=O)NC[C@@H]2C[C@](C)(O)CN2)nc2c(C(C)(C)C)cc(C3CC3)cc12 [Compound 429] |  | 294 | 
Cc1cc(-c2nnc(NCC3O[C@H]4COC[C@H]4O3)o2)nc2c(C(C)(C)C)cc(C3CC3)cc12 (stereo partly drawn) [Compound 413] |  | 311 | 
Cc1cc(-c2nnc(N[C@H]3CC[C@H](O)C3)o2)nc2c(C(C)(C)C)cc(OCC(F)(F)F)cc12 (racemic) [Compound 477] |  | 2.22 | 
